Reference: patent US10428080B2, “TBK/IKK inhibitor compounds and uses thereof” (Merck Patent GmbH, priority 2015, dated 2019)
Where two headings read alike, the source gives them in different places.

Legend:
[1] = system: phosphorylation of the IRF-3 protein in MDA-MB-468 cells; test: pIRF3 immunocytochemistry cell based assay; conditions: Homo sapiens
Procedure: The purpose of the pIRF3 immunocytochemistry cell based assay was to identify small molecules which modulates TBK/IKKe kinase activity through on target substrate phosphorylation of the IRF-3 protein. On the first day of the experiment, MDA-MB-468 cells were plated in 384 well, black, clear-bottom, Poly D lysine coated plates at a density of 5000 cells/well in 45 ul of complete DMEM and allowed to adhere overnight. On the second day compounds were added to cells at a starting concentration of 10 uM with a serial dilution of 3-fold for a total of 10 points. The cells were incubated for 1 hr at 37° C. Cells were then stimulated with Poly(I:C) at a final concentration of 10 ug/ml, and were incubated for 2 hr at 37° C. Following the incubation, media was removed from the wells and the cells were fixed with 4% PFA for 15 min at RT. Cells were washed at least 3 times with PBS, and then permeabilized with ice-cold methanol for 10 min at RT. The washing step was repeated and the cells were then blocked using 10% goat serum/1% BSA, made up in PBS and allowed to incubate at RT for 1 hr. The cells were washed again and then treated with an anti-pIRF3 antibody at 4° C. overnight (1:250 dilution of Abcam ab76493 in PBS containing 1% BSA). On the third day the primary antibody was washed off and pIRF3 was detected by adding the secondary antibody conjugated to AlexaFluor488 (1:200 dilution of secondary antibody in PBS containing 1% BSA) for 1 hr at RT. Cells were washed and then counterstained with PI/RNase staining buffer for 15 min at RT and read on the Acumen Explorer laser scanning cytometer. The percentage of phosphorylation of the IRF-3 protein was calculated using the following algorithm, a modified version of the mean half width intensity (pIRF3 staining)/(PI staining or # of cells)×100%). IC50 curves were generated using the Genedata software.

IKKε = molecular target: T1, IKKε (Homo sapiens, UniProt Q14164); test: IKKe Biochemical Assay; conditions: read-out: IKKε IC50
T1 sequence (Q14164 1-716): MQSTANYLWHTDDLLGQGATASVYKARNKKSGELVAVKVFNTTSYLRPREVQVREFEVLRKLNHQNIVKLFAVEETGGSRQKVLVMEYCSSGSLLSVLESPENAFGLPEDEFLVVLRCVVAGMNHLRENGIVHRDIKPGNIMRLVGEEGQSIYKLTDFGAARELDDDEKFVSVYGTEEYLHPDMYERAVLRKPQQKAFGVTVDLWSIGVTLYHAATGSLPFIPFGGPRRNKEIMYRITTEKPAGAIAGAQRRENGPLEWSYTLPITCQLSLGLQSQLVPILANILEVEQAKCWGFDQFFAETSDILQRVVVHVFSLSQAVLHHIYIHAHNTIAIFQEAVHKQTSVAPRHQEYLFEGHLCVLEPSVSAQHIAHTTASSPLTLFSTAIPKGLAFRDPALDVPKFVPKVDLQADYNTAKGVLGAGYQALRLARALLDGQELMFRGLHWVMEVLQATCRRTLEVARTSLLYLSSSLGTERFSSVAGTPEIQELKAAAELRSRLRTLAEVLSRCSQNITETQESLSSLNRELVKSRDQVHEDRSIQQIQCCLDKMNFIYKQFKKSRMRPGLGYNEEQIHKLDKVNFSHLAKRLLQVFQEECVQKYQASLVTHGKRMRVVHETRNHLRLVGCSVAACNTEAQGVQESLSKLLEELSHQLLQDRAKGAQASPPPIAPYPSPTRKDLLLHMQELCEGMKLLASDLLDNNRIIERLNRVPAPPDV
Outline: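 Activity was measured as mobility-shift separation of phosphorylated from unphosphorylated substrate on a LabChip EZ Reader. Compound was titrated from 30 uM final in 10 points, 1:4 steps, with 1% DMSO, and enzyme plus substrate reacted 90 min at 25° C before stop buffer. Control wells held 10 uM staurosporine.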

TBK1 = molecular target: T2, TBK1 (Homo sapiens, UniProt Q9UHD2); test: TBK Biochemical Assay; conditions: read-out: TBK1 IC50
T2 sequence (Q9UHD2 1-729): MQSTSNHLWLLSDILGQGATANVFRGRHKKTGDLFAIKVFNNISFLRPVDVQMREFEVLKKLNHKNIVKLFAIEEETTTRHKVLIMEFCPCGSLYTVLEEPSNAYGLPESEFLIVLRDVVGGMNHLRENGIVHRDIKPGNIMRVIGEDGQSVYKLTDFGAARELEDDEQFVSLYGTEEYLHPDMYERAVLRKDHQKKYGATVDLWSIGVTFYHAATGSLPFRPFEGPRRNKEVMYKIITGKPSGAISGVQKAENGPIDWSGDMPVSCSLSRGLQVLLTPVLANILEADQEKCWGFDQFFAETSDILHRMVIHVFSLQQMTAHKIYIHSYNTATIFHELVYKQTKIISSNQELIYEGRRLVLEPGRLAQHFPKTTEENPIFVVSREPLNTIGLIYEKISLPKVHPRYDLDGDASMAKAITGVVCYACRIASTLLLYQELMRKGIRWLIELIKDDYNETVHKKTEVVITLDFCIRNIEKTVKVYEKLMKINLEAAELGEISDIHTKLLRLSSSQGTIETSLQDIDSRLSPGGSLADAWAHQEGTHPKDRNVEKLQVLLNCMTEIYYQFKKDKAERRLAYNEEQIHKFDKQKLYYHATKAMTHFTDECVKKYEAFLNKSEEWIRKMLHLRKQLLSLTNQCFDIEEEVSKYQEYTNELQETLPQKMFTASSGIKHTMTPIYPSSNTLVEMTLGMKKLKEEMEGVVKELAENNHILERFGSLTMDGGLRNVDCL
Outline: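 Caliper LabChip mobility-shift readout of substrate and product after 90 min of TBK1 reaction at 25° C and stop-buffer addition. Compounds tested in 1:4 serial dilution over 10 points from 30 uM final at 1% DMSO; staurosporine 10 uM final defines full inhibition.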

[2] = MDA-MB-468, read-out: pIRF3 IC50
[3] = MDA-MB-468 cells, Poly(I:C) stimulation, read-out: pIRF3 IC50

Compound	IC50 [1, 2] [nM]	IC50 (IKKε) [nM]	IC50 (TBK1) [nM]	IC50 [1, 3] [nM]
COc1cc(C(=O)N[C@H]2COC[C@@H]2N(C)C)ccc1-c1cc2nccc(-c3ccc(OC4CCOCC4)c(C#N)c3)c2o1 [Compound 346, 4-[7-[3-cyano-4-(oxan-4-yloxy)phenyl]furo[3,2-b]pyridin-2-yl]-N-[(3R,4R)-4-(dimethylamino)oxolan-3-yl]-3-methoxy benzamide]	100 to 1000	< 100	< 100	–
COc1cc(C(=O)N2C[C@@H]3C[C@H]2CN3C)ccc1-c1cc2nccc(-c3ccc(OC4CCOCC4)c(C#N)c3)c2o1 [Compound 508]	–	< 100	< 100	< 100
COc1cc(C(=O)NC2CCOC2)ccc1-c1cc2nccc(-c3ccc(NC4CCOCC4)c(C#N)c3)c2o1 (stereo not drawn) [Compound 117, 4-{7-[3-Cyano-4-(tetrahydro-pyran-4-ylamino)-phenyl]-furo[3,2-b]pyridin-2-yl}-3-methoxy-N-(tetrahydro-furan-3-yl)-benzamide]	–	< 100	< 100	100 to 1000
COc1cc(C(=O)NCC(C)(C)CN(C)C)ccc1-c1cc2nccc(-c3ccc(NC4CCOCC4)c(C#N)c3)c2o1 [Compound 516, 4-{7-[3-Cyano-4-(tetrahydro-pyran-4-ylamino)-phenyl]-furo[3,2-b]pyridin-2-yl}-N-(3-dimethylamino-2,2-dimethyl-propyl)-3-methoxy-benzamide]	–	< 100	< 100	< 100
N#Cc1cc(-c2ccnc3cc(-c4ccc(C(=O)NC5CN6CCC5CC6)cc4F)oc23)ccc1OC1CCOCC1 (stereo not drawn) [Compound 139, N-(1-Aza-bicyclo[2.2.2]oct-3-yl)-4-{7-[3-cyano-4-(tetrahydro-pyran-4-yloxy)-phenyl]-furo[3,2-b]pyridin-2-yl}-3-fluoro-benzamide]	–	< 100	< 100	100 to 1000
COc1cc(C(N)=O)ccc1-c1cc2nccc(-c3ccc(OC4CCOCC4)c(C#N)c3)c2o1 [Compound 40, 4-{7-[3-Cyano-4-(tetrahydro-pyran-4-yloxy)-phenyl]-furo[3,2-b]pyridin-2-yl}-3-methoxy-benzamide]	–	< 100	< 100	100 to 1000
COc1cc(C(=O)NC2CCN(C)CC2O)ccc1-c1cc2nccc(-c3ccc(OC4CCOCC4)c(C#N)c3)c2o1 (stereo not drawn) [Compound 347, 4-[7-[3-cyano-4-(oxan-4-yloxy)phenyl]furo[3,2-b]pyridin-2-yl]-N-(3-hydroxy-1-methylpiperidin-4-yl)-3-methoxybenzamide]	–	< 100	< 100	100 to 1000
COc1cc(C(=O)N2CC(CO)C2)ccc1-c1cc2nccc(-c3ccc(OC4CCOCC4)c(C#N)c3)c2o1 [Compound 38, 5-{2-[4-(3-Hydroxymethyl-azetidine-1-carbonyl)-2-methoxy-phenyl]-furo[3,2-b]pyridin-7-yl}-2-(tetrahydro-pyran-4-yloxy)-benzonitrile]	–	< 100	< 100	100 to 1000
COc1cc(C(=O)N(C)C)ncc1-c1cc2nccc(-c3ccc(NC4CCN(C)C4)c(C#N)c3)c2o1 (stereo not drawn) [Compound 434, 5-(7-[3-cyano-4-[(1-methylpyrrolidin-3-yl)amino]phenyl]furo[3,2-b]pyridin-2-yl)-4-methoxy-N,N-dimethylpyridine-2-carboxamide]	–	< 100	< 100	< 100
COc1cc(C(=O)N(C)C)cnc1-c1cc2ncc(F)c(-c3ccc(OC4CCOCC4)c(C#N)c3)c2o1 [Compound 317, 6-(7-(3-cyano-4-(tetrahydro-2H-pyran-4-yloxy)phenyl)-6-fluorofuro[3,2-b]pyridin-2-yl)-5-methoxy-N,N-dimethylnicotinamide]	–	< 100	< 100	100 to 1000
COc1cc(C(=O)N(C)C)ncc1-c1cc2nccc(-c3ccc(NC4CCOCC4)c(C#N)c3)c2o1 [Compound 325, 5-(7-[3-cyano-4-[(oxan-4-yl)amino]phenyl]furo[3,2-b]pyridin-2-yl)-4-methoxy-N,N-dimethylpyridine-2-carboxamide]	100 to 1000	< 100	< 100	–
COc1cc(C(=O)N2CCCC3(CCNC3)C2)ccc1-c1cc2nccc(-c3ccc(OC4CCOCC4)c(C#N)c3)c2o1 (stereo not drawn) [Compound 25, 5-{2-[4-(2,7-Diaza-spiro[4.5]decane-7-carbonyl)-2-methoxy-phenyl]-furo[3,2-b]pyridin-7-yl}-2-(tetrahydro-pyran-4-yloxy)-benzonitrile]	–	< 100	< 100	100 to 1000
CCC(CO)(CO)NC(=O)c1ccc(-c2cc3nccc(-c4ccc(OC5CCOCC5)c(C#N)c4)c3o2)c(OC)c1 [Compound 479, N-(1,1-Bis-hydroxymethyl-propyl)-4-{7-[3-cyano-4-(tetrahydro-pyran-4-yloxy)-phenyl]-furo[3,2-b]pyridin-2-yl}-3-methoxy-benzamide]	–	< 100	< 100	100 to 1000
COc1cc(C(=O)N2CC3CC(C2)O3)cnc1-c1cc2nccc(-c3ccc(OC4CCOCC4)c(C#N)c3)c2o1 [Compound 435, 5-[2-[3-methoxy-5-([6-oxa-3-azabicyclo[3.1.1]heptan-3-yl]carbonyl)pyridin-2-yl]furo[3,2-b]pyridin-7-yl]-2-(oxan-4-yloxy)benzonitrile]	–	< 100	< 100	< 100
COc1cc(C(=O)N2CC(O)C2)ccc1-c1cc2nccc(-c3ccc(OC4CCOCC4)c(C#N)c3)c2o1 [Compound 39, 5-{2-[4-(3-Hydroxy-azetidine-1-carbonyl)-2-methoxy-phenyl]-furo[3,2-b]pyridin-7-yl}-2-(tetrahydro-pyran-4-yloxy)-benzonitrile]	–	< 100	< 100	100 to 1000
COc1cc(C(=O)NC2(CN(C)C)CCC2)ccc1-c1cc2nccc(-c3ccc(OC4CCOCC4)c(C#N)c3)c2o1 [Compound 368, 4-[7-[3-cyano-4-(oxan-4-yloxy)phenyl]furo[3,2-b]pyridin-2-yl]-N-[1-[(dimethylamino)methyl]cyclobutyl]-3-methoxybenzamide]	–	< 100	< 100	100 to 1000
